Here are results for one molecule from patent US20220323761A1, “METHOD FOR INDUCING HIBERNATION-LIKE STATE AND DEVICE SAME” (University of Tsukuba, priority 2019, published 2022).

Holding throughout (type): in vivo
The target in data set [1] is T1, hM3Dq in Q-neurons (Homo sapiens, UniProt P20309, A239G/Y149C).
T1 construct: mCherry (C); expressed in transfected cells; host or cells: QRFP-producing (Q) neurons of Qrfp-iCre mice transduced in vivo with AAV10-EF1α-DIO-hM3Dq-mCherry
The data set can be described thus: Body temperature, respiratory gas, ECG, EEG, respiration and serum analysis of Q-hM3D mice after IP CNO (QIH). From the text: (§1) In order to record the core body temperature, oxygen consumption amount, EEG, ECG, and respiratory patterns, each animal was housed in a temperature controlled chamber (HC-100, Shin Factory or LP-400P-AR, Nippon Medical & Chemical Instruments Co., Ltd.). In order to continuously record the TB (intraperitoneal temperature), a telemetry temperature sensor (TA11TA-F10, DSI) was implanted into the animal's abdominal cavity under general inhalation anesthesia at least 7 days prior to the recording. The VO 2 and carbon dioxide discharge rate (VCO2) of the animal were continuously recorded using a respiratory gas analyzer (ARCO-2000 mass spectrometer, ARCO System). The respiratory quotient was calculated from the ratio of VCO2/VO2.
The EEG and ECG were recorded using a implanted remote measurement transmitter (F20-EET or HD-X02, DSI). For EEG recording, two stainless steel screws (1 mm in diameter) were soldered to a wire of a telemetry transmitter and inserted under general anesthesia through the skull of the cortex (AP, 1.00 mm; right, 1.50 mm from bregma or lambda). Two other wires from the transmitter were placed on the surface of the thoractic cavity, and an ECG was recorded. The mice were allowed to recover from surgery for at least 10 days. An EEG/ECG data collecting system consisted of transmitters, an analog-digital converter and a recording computer with the software Ponemah Physiology Platform (version 6.30, DSI). The sampling rate was 500 Hz for both the EEG and the ECG, and the data was converted into ASCII format for review. The heart rate was evaluated through a visual inspection of the waveform.
The respiratory flow was recorded using a non-invasive respiratory flow recording system^35. Specifically, a mouse was placed in metabolic chamber (TMC-1213-PMMA, Minamiderika Shokai) having an air flow of at least 0.3 L/min. The chamber was connected to a pressure sensor (PMD-8203-3G, Biotex), and the pressure difference between the outside and inside of the chamber was detected. If the animal is breathing, the pressure difference from the outside to the inside increases during inhalation and decreases during exhalation^35. An analog signal output from the sensor was converted to a digital signal by an AD converter (NI-9205, National Instruments) at 250 Hz, and stored in a computer using data logging software developed by Biotex Inc.
(§2) The Dreadd agonist CNO (clozapine N-oxide, Abcam, ab141704) was dissolved in physiological saline at a dose of 100 μg/mL, and the solution was frozen at −20° C. The CNO solution was thawed on site and then administered to each mouse intraperitoneally at a dose of 1 mg/kg. The adenosineAl receptor agonist CHA (N^6-cyclohexyl adenosine, Sigma-Aldrich, C9901) was dissolved in physiological saline at a concentration of 250 μg/mL, and the solution was administered intraperitoneally to each mouse at a dose of 2.5 mg/kg.
Blood was collected from the mice under anesthesia through a left ventricular puncture using a 25 gauge needle. The collected blood was stored on ice for less than 2 hours. The sample was centrifuged at 2000 G for 10 minutes at 4° C., and the supernatant was collected and frozen at −30° C. The frozen serum specimens were sent to FUJIFILM Wako Pure Chemical Corporation, and the concentrations of Na (mEq/L), K (mEq/L), Cl (mEq/L), AST (IU/L), ALT (IU/L) LDH (IU/L), CK (IU/L), GLU (mg/dL), and total ketone bodies (μmol/L) were measured.

Data set [2] addresses T2, hM3Dq in iCre-positive neurons (Homo sapiens, UniProt P20309, A239G/Y149C).
T2 construct: mCherry (C); expressed in transfected cells; host or cells: iCre-expressing neurons of Qrfp-iCre; Rosa26^dreaddm3 mice (CAG-hM3Dq-mCherry at the Rosa26 locus, in vivo)
The data set can be described thus: Infrared thermography and behaviour of Qrfp-iCre; Rosa26^dreaddm3 mice after IP CNO.
Text: For thermographic analysis, the mice were inserted into an experiment cage (25×15×10 cm) and monitored using an infrared thermal imaging camera (InfReC R500 EX; Nippon Avionics) placed 30 cm above the cage floor. To clearly detect the surface temperature, the back hair was removed using hair clippers one day prior to the start of the experiment. Thermograms of DREADD and optogenetic experiments were collected at 0.5 Hz and 1 Hz, respectively, and analyzed using the InfReC Analyzer NS9500 Professional software (Nippon Avionics). The highest temperature of one frame was used as the TS of the animal (FIG. 1d).
as §2

Data set [3] concerns the target T1, hM3Dq in Q-neurons. The experiment in a line: Estimation of thermoregulatory parameters G, H and TR during CNO-induced QIH in Q-hM3D mice.
Text: as §1, §2
To evaluate the thermoregulatory system under QIH and normal conditions, the heat loss and heat production of the animals were described in a hierarchical multilayer model (FIG. 3c to FIG. 3k, code folder QIH_GTRH). Three parameters of G, TR and H under two metabolic conditions, that is, normal and QIH conditions, were estimated from a metabolically stable state of the animals at various TAs. The detailed method has been previously described^3. In summary, a linear model formed from the controllable parameter TA and the observable parameters TB and VO2 was fitted to the experimental results for both TB and VO2 using TA as a predictor having normal distribution noise. Next, G, TR, and H were estimated using the post-distribution of the slope and intercept coefficients for each model. […]

SMILES strings stand for the structures.

T2 sequence (P20309 whole entry Y149C/A239G): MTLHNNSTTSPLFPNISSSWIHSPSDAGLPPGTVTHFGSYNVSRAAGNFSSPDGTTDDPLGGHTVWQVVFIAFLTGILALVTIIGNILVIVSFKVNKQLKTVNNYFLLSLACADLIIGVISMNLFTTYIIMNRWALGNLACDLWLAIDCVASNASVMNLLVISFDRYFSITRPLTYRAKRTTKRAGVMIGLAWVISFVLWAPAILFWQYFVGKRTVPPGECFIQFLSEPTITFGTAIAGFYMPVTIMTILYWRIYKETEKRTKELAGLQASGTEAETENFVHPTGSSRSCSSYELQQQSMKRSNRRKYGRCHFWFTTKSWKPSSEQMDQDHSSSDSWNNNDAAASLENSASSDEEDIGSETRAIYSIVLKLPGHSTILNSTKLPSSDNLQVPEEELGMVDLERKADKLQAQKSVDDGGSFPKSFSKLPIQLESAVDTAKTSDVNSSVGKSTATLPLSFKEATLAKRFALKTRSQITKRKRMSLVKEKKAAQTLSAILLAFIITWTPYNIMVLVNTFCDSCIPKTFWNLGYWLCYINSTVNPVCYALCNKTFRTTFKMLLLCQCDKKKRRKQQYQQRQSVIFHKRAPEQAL
T1 sequence (P20309 whole entry Y149C/A239G, the tested form may be a part): as the sequence (P20309 whole entry Y149C/A239G) above

With `C[N+]1([O-])CCN(C2=Nc3cc(Cl)ccc3Nc3ccccc32)CC1` [CNO, clozapine N-oxide], on hM3Dq in Q-neurons [1] (IP injection, Q-hM3D mice), the “duration of extremely low TB state (below 30° C.)” value was ≥ 48 h and the “hypothermia compared with Qrfp-iCre; Rosa26^dreaddm3 mice” value is recorded as “deeper, longer sustained hypothermia”. Also, on hM3Dq in Q-neurons [1] (Q-hM3D mice), the “QIH after repeated injections in the same mice” value was “reproducible”, the “condition of mice after recovery from QIH” value is on record as “healthy”, the “electroencephalogram (EEG) in QIH” value was “very low amplitude” and the “induction of QIH” value was “effectively induces QIH”. For the same molecule, the tail temperature result at hM3Dq in Q-neurons [1] (Q-hM3D mice, 0.5 hours after IP CNO) is “increases”. Besides, on hM3Dq in Q-neurons [1] (Q-hM3D mice, CNO-induced hypothermic state), the “O2 consumption rate (VO2) change” value is listed as “significant reduction”. Further, on hM3Dq in Q-neurons [1] (Q-hM3D mice, concurrently with Ts), the “TB change after administration” value is recorded as “decreases”. Also, at hM3Dq in Q-neurons [1] (TA=20° C., one dose 1 mg/kg), the “duration of QIH with TB of less than 30° C.” value was ≥ 48 h and the “time for VO2 to fully return to normal” value was “about 1 week”. Moreover, the “posture during QIH” value on hM3Dq in Q-neurons [1] (TA=28° C., Q-hM3D mice, n=4) is “extended posture”. In addition, the “blood glucose levels in QIH” value at hM3Dq in Q-neurons [1] (blood serum chemical data) was “reduced”. Also, at hM3Dq in Q-neurons [1] (simultaneous infusion of AAV2/9-hSyn-DIO-TeTxLC-eYFP and AAV10-EF1α-DIO-hM3Dq-mCherry), the “effect of CNO on TB with TeTxLC co-expressed in Q-neurons” value is given as “completely eliminated”. On hM3Dq in Q-neurons [1] (two hours after CNO injection, average of n=3, 758 two hours prior), this molecule displayed a heart rate of 215 beats/min. On hM3Dq in Q-neurons [1] (two hours after CNO injection, 3.60 prior), this molecule had a VO2 of 1.17 mL/g/h. Moreover, at hM3Dq in Q-neurons [1] (two hours after CNO injection, 333 prior), the respiratory rate entry is “undetectable”. In addition, in data set [2], the “duration of TS reduction” value is “approximately 12 hours” and the “onset of TS reduction after administration” value is reported as “approximately 5 minutes”. In data set [2] (intraperitoneal CNO), the “onset of sustained immobility after injection” value is on record as “approximately 30 minutes”. For the same molecule, the “surface body temperature (TS) effect” value in data set [2] (thermography camera) was “significantly sustained hypothermia”. Also, the “reduction in H at each median” value at hM3Dq in Q-neurons [3] (QIH versus normal state) was 95.3%. On hM3Dq in Q-neurons [3] (eleven hours after IP injection, TA 8-32° C.), the “TB and VO2 versus control at every TA” value is “low TB and VO2”. Also, the “difference in TR at each median” value at hM3Dq in Q-neurons [3] (normal versus QIH) was 8.41 °C.
